# Laboratory results taken from patent US7132446B1, “Isolation of a dimer di-gallate, a potent endothelium-dependent vasorelaxing compound” (University of South Florida, priority 2001, dated 2006).
# Key:
# [1] = system: phenylephrine-contracted endothelium-intact rat aortic rings; test: Endothelium-dependent relaxation (EDR) bioassay, endothelium-intact aortic rings; format: cell-based; conditions: for threshold concentration (for 10% relaxation): intact aortic rings; for EDR activity (relaxation of endothelium-intact rings): phenylephrine-contracted endothelium-intact rings
# Description: Aortic ring preparation and bioassay. The procedure for preparation of rat aortic rings and general aspects of determining mechanical activity has been previously described. Briefly, male Sprague-Dawley rats (200–225 g) were euthanized with an overdose of sodium pentobarbital (100 mg/kg, i.p.), bled, and the thoracic aorta excised, cleaned, and rings (3–4 mm in length) were cut, taking care not to disturb the endothelium. In some instances the endothelium was deliberately removed by gently rubbing the lumen with a curved forceps. The rings were suspended in tissue baths containing a physiologic salt solution (PSS) with the following composition (in millimolar): 118 NaCl; 4.7 KCl; 25 NaHCO3; 1.2 MgSO4; 1.2 NaH2PO4; 0.026 EDTA; 1.5 CaCl2; 11 glucose. The solution was bubbled continuously with O2/CO2 (95%/5%), and maintained at 37° C. Activity was recorded on a Grass polygraph. After equilibration for at least 1 hr under 1.5 g of tension, tissues were contracted submaximally (approximately 80% of Emax) with phenylephrine (˜1 μM), and then 3 μM acetylcholine, a known EDR-active compound, was added to the bath to test for intactness of the endothelium. Rings were washed with PSS three times over the next 45 min. prior to the next sequence. EDR activity of HPLC peaks was determined by first contracting aortic rings with phenylephrine, as above, then generating concentration-response curves for relaxation by adding each peak sample to the bath, beginning with a sub-threshold concentration and adding increasing amounts until maximum relaxation is achieved. To test for endothelium-dependence, denuded aortic rings were used. Successful endothelium removal was established by a lack of relaxation response to 3 μM acetylcholine. […] Statistical methods. Data are presented as means±SEM. EC50s were determined from concentration-response curves, utilizing nonlinear regression analysis software (GraphPad Prizm, San Diego, Calif.).
# [2] = system: endothelium-denuded rat aortic rings; test: Relaxation bioassay, endothelium-denuded aortic rings; format: cell-based; conditions: de-endothelialized rings
# Description: Aortic ring preparation and bioassay. The procedure for preparation of rat aortic rings and general aspects of determining mechanical activity has been previously described. Briefly, male Sprague-Dawley rats (200–225 g) were euthanized with an overdose of sodium pentobarbital (100 mg/kg, i.p.), bled, and the thoracic aorta excised, cleaned, and rings (3–4 mm in length) were cut, taking care not to disturb the endothelium. In some instances the endothelium was deliberately removed by gently rubbing the lumen with a curved forceps. The rings were suspended in tissue baths containing a physiologic salt solution (PSS) with the following composition (in millimolar): 118 NaCl; 4.7 KCl; 25 NaHCO3; 1.2 MgSO4; 1.2 NaH2PO4; 0.026 EDTA; 1.5 CaCl2; 11 glucose. The solution was bubbled continuously with O2/CO2 (95%/5%), and maintained at 37° C. Activity was recorded on a Grass polygraph. […] EDR activity of HPLC peaks was determined by first contracting aortic rings with phenylephrine, as above, then generating concentration-response curves for relaxation by adding each peak sample to the bath, beginning with a sub-threshold concentration and adding increasing amounts until maximum relaxation is achieved. […]
# blood vessels in vitro = conditions: background statements; cited from earlier work
smiles,measurement,setting,value
"N=C(N)NCCC[C@H](N)C(=O)O [L-arginine, reference compound]",effect on the B2-di-gallate-induced relaxation of intact rings,"[1]; added to the bath after peak F2, L-arginine added after NNA",caused the tissue to relax once again
"O=C(O[C@@H]1[C@@H](c2c(O)cc(O)c3c2O[C@H](c2ccc(O)c(O)c2)[C@H](OC(=O)c2cc(O)c(O)c(O)c2)C3)c2c(O)cc(O)cc2O[C@@H]1c1ccc(O)c(O)c1)c1cc(O)c(O)c(O)c1 (single isomer, unassigned; peak f2) [peak F2, epicatechin-galloyl-epicatechin-gallate]",threshold concentration (for 10% relaxation),[1],approximately 0.35 μg/ml
same,threshold concentration (for 10% relaxation),[1]; molar value printed in brackets,~0.4 µM
same,EDR activity (relaxation of endothelium-intact rings),[1],relaxed
same,EDR activity (relaxation of endothelium-intact rings),[1]; listed as dimer digallate,substantial EDR activity
same,EC50,[1]; phenylephrine-contracted intact rings,760 nM
same,EC50 for relaxation of intact aortic rings,"[1]; phenylephrine-contracted intact rings, mean±SEM, n=4 rats (3–6 concentration-response curves/rat aorta)",0.67 ± 0.04 µg/mL
same,relaxing activity on endothelium-denuded rings,[2],no effect
Oc1cc(O)c2c(c1)OC(c1ccc(O)c(O)c1)C(O)C2O (stereo not drawn) [leucocyanidol],EDR activity (previous studies),blood vessels in vitro,some activity at lower concentrations
